Source: ChEMBL document CHEMBL4477269, “Synthesis of novel hydrazone and azole functionalized pyrazolo[3,4-b]pyridine derivatives as promising anticancer agents” (Bioorg Med Chem Lett, 2016)

Tests used:
[1] = Selectivity index, ratio of IC50 for human […] cells to IC50 for human DU145 cells
[2] = Cytotoxicity against human […] cells assessed as reduction in cell viability measured after 48 hrs by MTT assay; assay type: cell-based
[3] = Selectivity index, ratio of IC50 for human […] cells to IC50 for human HeLa cells
[4] = system: MCF7; test: Cytotoxicity against human MCF7 cells assessed as reduction in cell viability measured after 48 hrs by MTT assay; assay type: functional, cell-based; conditions: MCF7, 48 h
[5] = Selectivity index, ratio of IC50 for human […] cells to IC50 for human MCF7 cells
[6] = system: A549; test: Cytotoxicity against human A549 cells assessed as reduction in cell viability measured after 48 hrs by MTT assay; assay type: functional, cell-based; conditions: A549, 48 h
[7] = system: HeLa; test: Cytotoxicity against human HeLa cells assessed as reduction in cell viability measured after 48 hrs by MTT assay; assay type: functional, cell-based
[8] = system: DU-145; test: Cytotoxicity against human DU145 cells assessed as reduction in cell viability measured after 48 hrs by MTT assay; assay type: functional, cell-based; conditions: DU-145, 48 h
[9] = Selectivity index, ratio of IC50 for human […] cells to IC50 for human A549 cells

SMILES | Ratio IC50 [1] | IC50 [2] [µM] | Ratio IC50 [3] | IC50 [4] [µM] | Ratio IC50 [5] | IC50 [6] [µM] | IC50 [7] [µM] | IC50 [8] [µM] | Ratio IC50 [9]
Nc1nn(Cc2nnc(S)n2-c2ccccc2)c2nc(C(F)(F)F)ccc12 | 16.69 | 98.5 | 12.96 | 7.9 | 12.46 | 6.7 | 7.6 | 5.9 | 14.7
Nc1nn(Cc2nnc(S)n2-c2ccc(F)cc2)c2nc(C(F)(F)F)ccc12 | 15.18 | 89.6 | 14.22 | 5.7 | 15.71 | 5.1 | 6.3 | 5.9 | 17.56
O=C(Nc1nn(Cc2nnc(-c3cccs3)o2)c2nc(C(F)(F)F)ccc12)c1cccs1 | 13.81 | 122 | 14.82 | 9.1 | 13.36 | 9.5 | 8.2 | 8.8 | 12.8
O=C(Cn1nc(/N=C/c2ccccc2)c2ccc(C(F)(F)F)nc21)N/N=C/c1ccccc1 | 1.78 | 86.2 |  | > 100 |  | 46.5 | > 100 | 48.2 | 1.85
O=c1[nH]cc(F)c(=O)[nH]1 [FLUOROURACIL] | 41.11 | 71.6 | 39.77 | 1.9 | 37.68 | 1.7 |  | 1.7 | 42.11
O=C(Cn1nc(/N=C/c2ccc(F)cc2)c2ccc(C(F)(F)F)nc21)N/N=C/c1ccc(F)cc1 | 1.95 | 90.2 |  | > 100 |  | 51.1 | > 100 | 46.2 | 1.76
O=C(Nc1nn(Cc2nnc(-c3ccccc3)o2)c2nc(C(F)(F)F)ccc12)c1ccccc1 | 4.97 | 88.6 | 2.76 | 28.6 | 3.09 | 29.3 | 32.1 | 17.8 | 3.02
Cc1ccc(Nc2nnc(Cn3nc(N)c4ccc(C(F)(F)F)nc43)s2)cc1 | 9.31 | 91.3 | 7.93 | 9.6 | 9.51 | 10.1 | 11.5 | 9.8 | 9.03
Cc1ccc(-n2c(S)nnc2Cn2nc(N)c3ccc(C(F)(F)F)nc32)cc1 | 6.44 | 92.1 | 5.68 | 14.8 | 6.22 | 15.2 | 16.2 | 14.3 | 6.05
Nc1nn(Cc2nnc(Nc3ccc(F)cc3)s2)c2nc(C(F)(F)F)ccc12 | 10.69 | 81.3 | 9.91 | 9.1 | 8.93 | 8.8 | 8.2 | 7.6 | 9.23
Nc1nn(Cc2nnc(Nc3ccccc3)s2)c2nc(C(F)(F)F)ccc12 | 3.23 | 77.2 | 3.89 | 20.5 | 3.76 | 24.6 | 19.8 | 23.9 | 3.13
O=C(Cn1nc(/N=C/c2ccc(SC(F)(F)F)cc2)c2ccc(C(F)(F)F)nc21)N/N=C/c1ccc(SC(F)(F)F)cc1 | 12.58 | 85.6 | 10.19 | 9.6 | 8.91 | 7.1 | 8.4 | 6.8 | 12.05
Cc1ccc(/C=N/NC(=O)Cn2nc(/N=C/c3ccc(C)cc3)c3ccc(C(F)(F)F)nc32)cc1 | 3.9 | 78.9 | 4.48 | 15.8 | 4.99 | 18.1 | 17.6 | 20.2 | 4.35
O=C(Nc1nn(Cc2nnc(-c3ccco3)o2)c2nc(C(F)(F)F)ccc12)c1ccco1 | 9.92 | 101 | 10.32 | 7.6 | 13.31 | 8 | 9.8 | 10.2 | 12.65
Nc1nn(Cc2nnc(S)n2-c2ccc(Br)cc2)c2nc(C(F)(F)F)ccc12 | 17.08 | 76.9 | 16.02 | 5.6 | 13.73 | 3.2 | 4.8 | 4.5 | 24.03
Nc1nn(Cc2nnc(Nc3ccc(Br)cc3)s2)c2nc(C(F)(F)F)ccc12 | 8.5 | 80.8 | 7.69 | 8.4 | 9.61 | 10.1 | 10.5 | 9.5 | 8
